Laboratory results reported in ChEMBL document CHEMBL4814046, “Inhibitory effects and mechanism of antifungal action of the natural cyclic depsipeptide, aureobasidin A against Cryptococcus neoformans” (Bioorg Med Chem Lett, 2021).
In brackets after ≈: the same amount, converted by molar mass. Activity calls are given as the source filed them. No cut-off for these calls is given here. *1 amine or outer side, *2 acyl side, *3 side chain or, on linkers, in order; H or OH if unused. Where a SMILES comes first, the peptide text is derived from it. [ ]: non-standard residue; d: D form. X1 = CC[C@@H](C)[C@@H](O[*:1])C(=O)[*:2]; NMeVal(β-OH) = CN[C@H](C(=O)O)C(C)(C)O; NMeF = CN[C@@H](Cc1ccccc1)C(=O)O; aIle = CC[C@@H](C)[C@H](N)C(=O)O; NMeV = CN[C@H](C(=O)O)C(C)C

Columns and labels:
Pichia kudriavzevii = test: Antifungal activity against Candida krusei incubated for 24 hrs by broth microdilution method; type: functional
Aspergillus fumigatus = test: Antifungal activity against Aspergillus fumigatus incubated for 48 hrs by broth microdilution method; type: functional
Cryptococcus neoformans [1] = test: Inhibition of ergosterol biosynthesis in Cryptococcus neoformans PFCC 93-589 cell membrane at 0.5 times MIC incubated for 48 hrs by UV-visible spectrophotometric analysis; type: functional, cell membranes
[2] = Cytotoxicity against human HEK293 cells assessed as cell survival at 0.5 times MIC incubated for 24 hrs by MTT assay; type: cell-based; conditions: read-out: Activity
Cryptococcus neoformans [3] = test: Antifungal activity against Cryptococcus neoformans PFCC 93-589 after 2 days in presence of sorbitol by microdilution assay; type: functional; conditions: PFCC 93-589, 48 h, time 2 day
[4] = Hemolytic activity in human RBC at 0.5 ug/ml incubated for 30 mins; type: ADME, cell-based, Erythrocyte; conditions: red blood cells (erythrocytes), at 0.5 µg/mL, read-out: Activity
Candida parapsilosis = test: Antifungal activity against Candida parapsilosis incubated for 24 hrs by broth microdilution method; type: functional; conditions: Lodderomyces parapsilosis
Cryptococcus neoformans [5] = test: Antifungal activity against Cryptococcus neoformans PFCC 93-589 in presence of fluconazole by checkerboard microtiter assay; type: functional
Cryptococcus neoformans [6] = test: Induction of morphological changes in Cryptococcus neoformans PFCC 93-589 assessed as deposition of lipid globules at 2 ug/ml after 48 hrs by TEM analysis; type: functional, organism-based; conditions: dose 2.0 µg/ml
Cryptococcus neoformans [7] = test: Induction of morphological changes in Cryptococcus neoformans PFCC 93-589 assessed as disorganization of cytoplasmic content at 2 ug/ml after 48 hrs by TEM analysis; type: functional, organism-based; conditions: dose 2.0 µg/ml
[8] = Hemolytic activity in human RBC at 4 ug/ml incubated for 30 mins; type: cell-based, Erythrocyte; conditions: red blood cells (erythrocytes), at 4 µg/mL, read-out: Activity
Cryptococcus neoformans [9] = test: Inhibition of ergosterol biosynthesis in Cryptococcus neoformans PFCC 93-589 cell membrane assessed as ergosterol content at 1 times MIC incubated for 48 hrs by UV-visible spectrophotometric analysis (reference value: 0.134); type: functional, cell membranes
[10] = Hemolytic activity in human RBC at 8 ug/ml incubated for 30 mins; type: ADME, cell-based, Erythrocyte; conditions: red blood cells (erythrocytes), at 8 µg/mL, read-out: Activity
Cryptococcus neoformans [11] = test: Antifungal activity against Cryptococcus neoformans PFCC 93-589 after 7 days in presence of sorbitol by microdilution assay; type: functional; conditions: PFCC 93-589, 168 h, time 7 day
Cryptococcus neoformans [12] = test: Antifungal activity against Cryptococcus neoformans PFCC 93-589 assessed as TOS production at 0.5 times MIC incubated for 10 mins measured per mg of protein by colorimetric method (reference value: 1.04 umol); type: functional
Cryptococcus neoformans [13] = test: Antifungal activity against Cryptococcus neoformans PFCC 93-589 assessed as inhibition of melanin production at 0.5 times MIC incubated for 2 to 10 days; type: functional, organism-based; conditions: time 2-10 day
Cryptococcus neoformans [14] = test: Upregulation of Lac1 gene expression in Cryptococcus neoformans PFCC 93-589 assessed as fold increase in […] at 2 ug/ml by SYBR green based RT-PCR analysis; type: functional; conditions: dose 2.0 µg/ml
Cryptococcus neoformans [15] = test: Downregulation of Cxt1p gene expression in Cryptococcus neoformans PFCC 93-589 at 2 ug/ml by SYBR green based RT-PCR analysis relative to control; type: functional; conditions: dose 2.0 µg/ml
Cryptococcus neoformans [16] = test: Synergistic antifungal activity against Cryptococcus neoformans PFCC 93-589 assessed as fractional inhibitory concentration index in presence of fluconazole by checkerboard microtiter assay; type: functional
[17] = Cytotoxicity against human HEK293 cells assessed as inhibition of cell viability at 2 times MIC incubated for 24 hrs by MTT assay; type: cell-based; conditions: at 8 µg/mL, read-out: INH
Cryptococcus neoformans [18] = test: Fungicidal activity against Cryptococcus neoformans PFCC 93-589 by broth microdilution assay; type: functional
[19] = Hemolytic activity in human RBC at 1 ug/ml incubated for 30 mins; type: ADME, cell-based, Erythrocyte; conditions: red blood cells (erythrocytes), at 1 µg/mL, read-out: Activity
Cryptococcus neoformans [20] = test: Antifungal activity against Cryptococcus neoformans PFCC 93-589 assessed as increase in extracellular potassium leakage at 2 times MIC incubated up to 12 hrs measured per mg dry weight of cell by spectrophotometric method; type: functional; conditions: time hrs <=12
[21] = Cytotoxicity against human HEK293 cells assessed as cell survival at 1 times MIC incubated for 24 hrs by MTT assay; type: cell-based; conditions: read-out: Activity
Cryptococcus neoformans [22] = test: Induction of morphological changes in Cryptococcus neoformans PFCC 93-589 assessed as excessive vacuolization at 2 ug/ml after 48 hrs by TEM analysis; type: functional, organism-based; conditions: dose 2.0 µg/ml
Cryptococcus neoformans [23] = test: Antifungal activity against Cryptococcus neoformans PFCC 93-589 by broth microdilution assay; type: functional
Aspergillus niger = test: Antifungal activity against Aspergillus niger incubated for 48 hrs by broth microdilution method; type: functional
Cryptococcus neoformans [24] = test: Antifungal activity against Cryptococcus neoformans PFCC 93-589 assessed as TOS production at 1 times MIC incubated for 10 mins measured per mg of protein by colorimetric method (reference value: 1.19 umol); type: functional
Cryptococcus neoformans [25] = test: Downregulation of Cxt1p gene expression in Cryptococcus neoformans PFCC 93-589 assessed as fold decrease in […] at 2 ug/ml by SYBR green based RT-PCR analysis; type: functional; conditions: dose 2.0 µg/ml
Cryptococcus neoformans [26] = test: Antifungal activity against Cryptococcus neoformans PFCC 93-589 after 7 days in absence of sorbitol by microdilution assay; type: functional; conditions: PFCC 93-589, 168 h, time 7 day
[27] = Hemolytic activity in human RBC at 2 ug/ml incubated for 30 mins; type: ADME, cell-based, Erythrocyte; conditions: red blood cells (erythrocytes), at 2 µg/mL, read-out: Activity
Candida tropicalis = test: Antifungal activity against Candida tropicalis incubated for 24 hrs by broth microdilution method; type: functional
Nakaseomyces glabratus = test: Antifungal activity against Candida glabrata incubated for 24 hrs by broth microdilution method; type: functional
[28] = Cytotoxicity against human HEK293 cells assessed as cell survival at 0.25 times MIC incubated for 24 hrs by MTT assay; type: cell-based; conditions: read-out: Activity
Cryptococcus neoformans [29] = test: Antifungal activity against Cryptococcus neoformans PFCC 93-589 assessed as half minimum inhibitory concentration by broth microdilution assay; type: functional
Cryptococcus neoformans [30] = test: Antifungal activity against Cryptococcus neoformans PFCC 93-589 after 2 days in absence of sorbitol by microdilution assay; type: functional; conditions: PFCC 93-589, 48 h, time 2 day
Candida albicans = test: Antifungal activity against Candida albicans incubated for 24 hrs by broth microdilution method; type: functional
Aspergillus flavus = test: Antifungal activity against Aspergillus flavus incubated for 48 hrs by broth microdilution method; type: functional
Cryptococcus neoformans [31] = test: Inhibition of ergosterol biosynthesis in Cryptococcus neoformans PFCC 93-589 cell membrane assessed as ergosterol content at 0.5 times MIC incubated for 48 hrs by UV-visible spectrophotometric analysis (reference value: 0.134); type: functional, cell membranes
Cryptococcus neoformans [32] = test: Inhibition of ergosterol biosynthesis in Cryptococcus neoformans PFCC 93-589 cell membrane at 1 times MIC incubated for 48 hrs by UV-visible spectrophotometric analysis; type: functional, cell membranes
Cryptococcus neoformans [33] = test: Antifungal activity against Cryptococcus neoformans PFCC 93-589 assessed as TOS production at 2 times MIC incubated for 10 mins measured per mg of protein by colorimetric method (reference value: 1.63 umol); type: functional
Cryptococcus neoformans [34] = test: Induction of morphological changes in Cryptococcus neoformans PFCC 93-589 assessed as disintegration and loosening of cell membrane at 4 ug/ml after 48 hrs by TEM analysis; type: functional, organism-based; conditions: dose 4.0 µg/ml
Cryptococcus neoformans [35] = test: Upregulation of Lac1 gene expression in Cryptococcus neoformans PFCC 93-589 at 4 ug/ml by SYBR green based RT-PCR analysis; type: functional; conditions: dose 4.0 µg/ml
[36] = Hemolytic activity in human RBC at 16 ug/ml incubated for 30 mins; type: ADME, cell-based, Erythrocyte; conditions: red blood cells (erythrocytes), at 16 µg/mL, read-out: Activity
Cryptococcus neoformans [37] = test: Induction of morphological changes in Cryptococcus neoformans PFCC 93-589 assessed as disorganization of cytoplasmic content at 4 ug/ml after 48 hrs by TEM analysis; type: functional, organism-based; conditions: dose 4.0 µg/ml
Cryptococcus neoformans [38] = test: Downregulation of Cxt1p gene expression in Cryptococcus neoformans PFCC 93-589 at 4 ug/ml by SYBR green based RT-PCR analysis; type: functional; conditions: dose 4.0 µg/ml
Cryptococcus neoformans [39] = test: Antifungal activity against Cryptococcus neoformans PFCC 93-589 in presence of Aureobasidin-A by checkerboard microtiter assay; type: functional
[40] = Cytotoxicity against human HEK293 cells assessed as cell viability at 2 times MIC incubated for 24 hrs by MTT assay; type: cell-based; conditions: read-out: Activity

Structure (SMILES): CC[C@@H](C)[C@@H]1NC(=O)[C@@H]2CCCN2C(=O)[C@H](Cc2ccccc2)N(C)C(=O)[C@H](Cc2ccccc2)NC(=O)[C@H](C(C)C)N(C)C(=O)[C@@H]([C@H](C)CC)OC(=O)[C@H](C(C)(C)O)N(C)C(=O)[C@H](CC(C)C)NC(=O)[C@H](C(C)C)N(C)C1=O [AUREOBASIDIN A] (cyclo(F[NMeF]P[aIle][NMeV]L[NMeVal(β-OH)][X1][NMeV]))
- MIC (Pichia kudriavzevii): < 2000 µg/mL
- MIC (Aspergillus fumigatus): > 50000 µg/mL
- inhibition (Cryptococcus neoformans [1]): 29.1%
- viability at 24 h, 0.5 times MIC [2]: 89%
- MIC (Cryptococcus neoformans [3]): 8 µg/mL
- hemolysis at 0.5 h, 0.5 ug/ml [4]: 0%
- MIC (Candida parapsilosis): < 2000 µg/mL
- MIC (Cryptococcus neoformans [5]): 1 µg/mL
- Activity (Cryptococcus neoformans [6]): Active
- Activity (Cryptococcus neoformans [7]): Active
- hemolysis at 0.5 h, 4 ug/ml [8]: 1.35%
- Activity (Cryptococcus neoformans [9]): 0.078
- hemolysis at 0.5 h, 8 ug/ml [10]: 2.4%
- MIC (Cryptococcus neoformans [11]): 16 µg/mL
- Activity (Cryptococcus neoformans [12]): 1.46 nmol
- Activity (Cryptococcus neoformans [13]): Active
- fold change (FC) (Cryptococcus neoformans [14]): 11.7
- inhibition (Cryptococcus neoformans [15]): 80%
- fractional inhibitory concentration index (FICI) (Cryptococcus neoformans [16]): 0.26
- cytotoxicity at 24 h, 2 times MIC [17]: 40%
- MFC (Cryptococcus neoformans [18]): 8 µg/mL (≈ 7.26 µM)
- hemolysis at 0.5 h, 1 ug/ml [19]: 0.31%
- Activity (Cryptococcus neoformans [20]): 2.51 mM
- viability at 24 h, 1 times MIC [21]: 75%
- Activity (Cryptococcus neoformans [22]): Active
- MIC (Cryptococcus neoformans [23]): 4 µg/mL (≈ 3.63 µM)
- MIC (Aspergillus niger): 800 µg/mL (≈ 726 µM)
- Activity (Cryptococcus neoformans [24]): 2.12 nmol
- fold change (FC) (Cryptococcus neoformans [25]): 0.2
- MIC (Cryptococcus neoformans [26]): 16 µg/mL (≈ 14.5 µM)
- hemolysis at 0.5 h, 2 ug/ml [27]: 0.65%
- MIC (Candida tropicalis): < 2000 µg/mL
- MIC (Nakaseomyces glabratus): < 2000 µg/mL
- viability at 24 h, 0.25 times MIC [28]: 98%
- MIC (Cryptococcus neoformans [29]): 2 µg/mL (≈ 1.82 µM)
- MIC (Cryptococcus neoformans [30]): 8 µg/mL (≈ 7.26 µM)
- MIC (Candida albicans): < 2000 µg/mL
- MIC (Aspergillus flavus): > 50000 µg/mL
- Activity (Cryptococcus neoformans [31]): 0.095
- inhibition (Cryptococcus neoformans [32]): 41.8%
- Activity (Cryptococcus neoformans [33]): 3.09 nmol

Structure (SMILES): OC(Cn1cncn1)(Cn1cncn1)c1ccc(F)cc1F [FLUCONAZOLE]
- inhibition (Cryptococcus neoformans [1]): 59%
- viability at 24 h, 0.5 times MIC [2]: 97.9%
- Activity (Cryptococcus neoformans [34]): Active
- MIC (Cryptococcus neoformans [3]): 16 µg/mL
- Activity (Cryptococcus neoformans [35]): inactive
- hemolysis at 0.5 h, 4 ug/ml [8]: 34%
- hemolysis at 0.5 h, 16 ug/ml [36]: 53%
- Activity (Cryptococcus neoformans [9]): 0.047
- Activity (Cryptococcus neoformans [37]): Active
- hemolysis at 0.5 h, 8 ug/ml [10]: 42%
- MIC (Cryptococcus neoformans [11]): 64 µg/mL
- inhibition (Cryptococcus neoformans [38]): inactive
- MIC (Cryptococcus neoformans [39]): 0.5 µg/mL
- Activity (Cryptococcus neoformans [13]): Active
- viability at 24 h, 2 times MIC [40]: 88.6%
- MFC (Cryptococcus neoformans [18]): 16 µg/mL (≈ 52.2 µM)
- hemolysis at 0.5 h, 1 ug/ml [19]: 18%
- viability at 24 h, 1 times MIC [21]: 95.5%
- MIC (Cryptococcus neoformans [23]): 8 µg/mL (≈ 26.1 µM)
- MIC (Cryptococcus neoformans [26]): 64 µg/mL (≈ 209 µM)
- hemolysis at 0.5 h, 2 ug/ml [27]: 29%
- viability at 24 h, 0.25 times MIC [28]: 99.9%
- MIC (Cryptococcus neoformans [29]): 4 µg/mL (≈ 13.1 µM)
- MIC (Cryptococcus neoformans [30]): 16 µg/mL (≈ 52.2 µM)
- Activity (Cryptococcus neoformans [31]): 0.055
- inhibition (Cryptococcus neoformans [32]): 64.9%
